Results on three compounds are retold here after ChEMBL document CHEMBL5356988, “Diversely functionalized isoquinolines and their core-embedded heterocyclic frameworks: a privileged scaffold for medicinal chemistry” (RSC Med Chem, 2023).

One assay deals with HGC-27. Kind of assay: Antiproliferative activity against human HGC-27 cells assessed as reduction in cell viability by CCK-8 assay. The class given is functional, cell-based.
In another assay the target is T1, Interleukin-5 (Homo sapiens, UniProt P05113).
T1 sequence (P05113 whole entry): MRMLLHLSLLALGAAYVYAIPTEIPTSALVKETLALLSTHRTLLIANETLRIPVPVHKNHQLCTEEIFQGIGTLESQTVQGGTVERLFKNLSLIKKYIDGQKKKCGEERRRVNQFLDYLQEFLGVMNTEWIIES
Kind of assay: Inhibition of IL-5 (unknown origin).

In general, IC50 refers to the point on the concentration scale where inhibition reaches its midpoint. `Fc1ccc(/C=C/c2nccc3ccccc23)c(F)c1`: the IC50 in the assay on HGC-27 is 40 nM.

In the case of `Fc1ccc(/C=C/c2nccc3ccccc23)cc1F`, in the assay on HGC-27, the IC50 was determined as 80 nM. In turn, `C=C1Oc2c(ccc3cc(C)ncc23)C1=O` showed an IC50 on Interleukin-5 of 2000 nM.
